Assay results: PubChem BioAssay AID330 (DTP/NCI, 2004)
Where “and” joins values, the source holds several entries; their conditions need not be identical. Equal values may be shown once. Toxic doses and inconclusive results are not listed. Rule for the calls: active = survival T/C of 150% or more; inactive = T/C below 125% in these data.

System: P388 leukemia ip, CD2F1 mice, survival T/C
Assay: NCI In Vivo Anticancer Drug Screen. Data for tumor model P388 Leukemia (intraperitoneal) in CD2F1 (CDF1) mice
Details: endpoint: median survival time, higher = longer survival
How it was run: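 Mice carrying the transplanted tumor received test compound or vehicle. Survival was recorded in each group, and the value is the treated-group measurement divided by that of the vehicle-treated control group.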

[1] = dose: 50.0 mg/kg/injection, schedule: Q01DX005 (ip), vehicle: saline with Tween-80
[2] = dose: 100.0 mg/kg/injection, schedule: Q01DX005 (ip), vehicle: saline with Tween-80
[3] = dose: 200.0 mg/kg/injection, schedule: Q01DX005 (ip), vehicle: saline with Tween-80
[4] = dose: 50.0 mg/kg/injection, schedule: Q01DX009 (ip), vehicle: saline + alcohol
[5] = dose: 100.0 mg/kg/injection, schedule: Q01DX009 (ip), vehicle: saline + alcohol
[6] = dose: 200.0 mg/kg/injection, schedule: Q01DX009 (ip), vehicle: saline + alcohol
[7] = dose: 50.0 mg/kg/injection, schedule: Q01DX009 (ip), vehicle: saline with Tween-80
[8] = dose: 100.0 mg/kg/injection, schedule: Q01DX009 (ip), vehicle: saline with Tween-80
[9] = dose: 50.0 mg/kg/injection, schedule: Q01DX009 (ip), vehicle: saline
[10] = dose: 100.0 mg/kg/injection, schedule: Q01DX009 (ip), vehicle: saline
[11] = dose: 50.0 mg/kg/injection, schedule: Q01DX001 (ip), vehicle: Klucel (hydroxypropylcellulose) (HPC)
[12] = dose: 100.0 mg/kg/injection, schedule: Q01DX001 (ip), vehicle: Klucel (hydroxypropylcellulose) (HPC)
[13] = dose: 200.0 mg/kg/injection, schedule: Q01DX001 (ip), vehicle: Klucel (hydroxypropylcellulose) (HPC)
[14] = dose: 25.0 mg/kg/injection, schedule: Q01DX009 (ip), vehicle: Klucel (hydroxypropylcellulose) (HPC)
[15] = dose: 50.0 mg/kg/injection, schedule: Q01DX009 (ip), vehicle: Klucel (hydroxypropylcellulose) (HPC)

Measured: T/C

CC(C)c1ccccc1N1C(=O)CC(Sc2ccccc2N)C1=O (stereo not drawn)
inactive: dose: 12.5 mg/kg/injection, schedule: Q01DX005 (ip), vehicle: Klucel (hydroxypropylcellulose) (HPC) 107 % of control | dose: 25.0 mg/kg/injection, schedule: Q01DX005 (ip), vehicle: Klucel (hydroxypropylcellulose) (HPC) 102 % of control | dose: 50.0 mg/kg/injection, schedule: Q01DX005 (ip), vehicle: Klucel (hydroxypropylcellulose) (HPC) 105 % of control and 90 % of control | dose: 200.0 mg/kg/injection, schedule: Q01DX005 (ip), vehicle: Klucel (hydroxypropylcellulose) (HPC) 90 % of control

COc1ccc(CN2CC(C)(NC(=O)OCc3ccccc3)C2=O)c(OC)c1 (stereo not drawn)
inactive: [1] 106 % of control | [2] 98 % of control | [3] 103 % of control

COC(=O)[C@H]1[C@H]2C[C@@H]3c4[nH]c5cc(OC)ccc5c4CCN3C[C@H]2C[C@@H](OC(=O)CC(C)=O)[C@@H]1OC
inactive: [1] 95 % of control | [2] 91 % of control | [3] 88 % of control

CC(/C=N/Nc1ccccc1)=N\N=c1/scc(-c2ccccc2)n1Cc1ccccc1
inactive: dose: 100.0 mg/kg/injection, schedule: Q01DX001 (ip), vehicle: saline with Tween-80 93 % of control | dose: 200.0 mg/kg/injection, schedule: Q01DX001 (ip), vehicle: saline with Tween-80 97 % of control | dose: 400.0 mg/kg/injection, schedule: Q01DX001 (ip), vehicle: saline with Tween-80 93 % of control

Cc1cc(C)cc(C(O)(CBr)CC(C)(Cl)Cl)c1 (stereo not drawn)
inactive: [4] 114 % of control | [5] 119 % of control | [6] 120 % of control

CCOC(=O)C1=S=C(SC)N(C)C1=O
inactive: [7] 107 % of control | [8] 107 % of control

Cc1ccc2[nH]cc(C3CCCN4CCCCC34)c2c1 (stereo not drawn)
inactive: dose: 12.5 mg/kg/injection, schedule: Q01DX001 (ip), vehicle: saline with Tween-80 99 % of control | dose: 25.0 mg/kg/injection, schedule: Q01DX001 (ip), vehicle: saline with Tween-80 100 % of control | dose: 50.0 mg/kg/injection, schedule: Q01DX001 (ip), vehicle: saline with Tween-80 98 % of control | dose: 90.0 mg/kg/injection, schedule: Q01DX001 (ip), vehicle: saline with Tween-80 92 % of control

NC(=O)CC(=O)O
inactive: [9] 96 % of control | [10] 91 % of control | dose: 200.0 mg/kg/injection, schedule: Q01DX009 (ip), vehicle: saline 104 % of control

CC1=CCCC1C1C=CCC1 (stereo not drawn) (tested in a mixture with another compound)
inactive: dose: 25.0 mg/kg/injection, schedule: Q01DX009 (ip), vehicle: saline with Tween-80 102 % of control | [7] 103 % of control and 105 % of control | [8] 116 % of control

O=C(/C=C\c1cc2[nH]c1c(-c1ccccc1)c1nc(c(-c3ccccc3)c3ccc([nH]3)c(-c3ccccc3)c3nc(c2-c2ccccc2)C=C3)C=C1)NCCCn1ccnc1
inactive: [11] 100 % of control | [12] 94 % of control | [13] 93 % of control | dose: 400.0 mg/kg/injection, schedule: Q01DX001 (ip), vehicle: Klucel (hydroxypropylcellulose) (HPC) 96 % of control

CCC12OCCN1CC(C)O2 (stereo not drawn)
inactive: [7] 98 % of control | [8] 111 % of control | dose: 200.0 mg/kg/injection, schedule: Q01DX009 (ip), vehicle: saline with Tween-80 113 % of control | dose: 400.0 mg/kg/injection, schedule: Q01DX009 (ip), vehicle: saline with Tween-80 119 % of control

CC1(C)C2CCC1(CS(=O)O)C(=O)C2.[Ag] (stereo not drawn)
inactive: [1] 111 % of control | [2] 105 % of control

CCCCCCCCCCCCCCCCCCOCC(O)CO (stereo not drawn)
inactive: dose: 25.0 mg/kg/injection, schedule: Q01DX009 (ip), vehicle: saline + alcohol 91 % of control | [4] 92 % of control | [5] 94 % of control | [6] 100 % of control | dose: 400.0 mg/kg/injection, schedule: Q01DX009 (ip), vehicle: saline + alcohol 100 % of control

O=C(CI)Nc1cccc(C(=O)O)c1O
inactive: dose: 12.5 mg/kg/injection, schedule: Q01DX009 (ip), vehicle: Klucel (hydroxypropylcellulose) (HPC) 101 % of control | [14] 113 % of control | [15] 99 % of control

CC1(C=O)CCCC2(C)[C@@H]1CCC13CC(CC[C@H]12)C(C(=O)O)C3 (stereo partly drawn)
inactive: dose: 3.25 mg/kg/injection, schedule: Q01DX005 (ip), vehicle: Klucel (hydroxypropylcellulose) (HPC) 86 % of control | dose: 6.5 mg/kg/injection, schedule: Q01DX005 (ip), vehicle: Klucel (hydroxypropylcellulose) (HPC) 90 % of control | dose: 13.0 mg/kg/injection, schedule: Q01DX005 (ip), vehicle: Klucel (hydroxypropylcellulose) (HPC) 87 % of control

CN=C(NC)c1ccc(NC(=O)/C=C/C(=O)Nc2ccc(C(=NC)NC)cc2)cc1
inactive: dose: 12.5 mg/kg/injection, schedule: Q01DX005 (ip), vehicle: saline with Tween-80 101 % of control | dose: 25.0 mg/kg/injection, schedule: Q01DX005 (ip), vehicle: saline with Tween-80 99 % of control | [1] 98 % of control and 103 % of control

Cc1cc(NC(=O)C(=O)O)cc2c(=O)cc(C(=O)O)[nH]c12
inactive: [14] 102 % of control | [15] 117 % of control and 124 % of control

O=C(O)c1ccc(NC(=O)C2C(=O)C(=O)N(c3ccc(C(=O)O)cc3)C2=O)cc1 (stereo not drawn)
inactive: [15] 104 % of control | dose: 100.0 mg/kg/injection, schedule: Q01DX009 (ip), vehicle: Klucel (hydroxypropylcellulose) (HPC) 100 % of control | dose: 200.0 mg/kg/injection, schedule: Q01DX009 (ip), vehicle: Klucel (hydroxypropylcellulose) (HPC) 103 % of control

COCn1cc(C(N)=O)c(=O)c2c(N)nc(SC)nc21
inactive: dose: 25.0 mg/kg/injection, schedule: Q04DX002 (ip), vehicle: saline with Tween-80 96 % of control

O=C1c2ccccc2C(=O)N1C(=NC1CCCCC1)c1ccccc1
inactive: dose: 100.0 mg/kg/injection, schedule: Q04DX003 (ip), vehicle: Klucel (hydroxypropylcellulose) (HPC) 104 % of control | dose: 200.0 mg/kg/injection, schedule: Q04DX003 (ip), vehicle: Klucel (hydroxypropylcellulose) (HPC) 101 % of control | dose: 400.0 mg/kg/injection, schedule: Q04DX003 (ip), vehicle: Klucel (hydroxypropylcellulose) (HPC) 109 % of control

CC(=O)NC(CCO)C(N)=O (stereo not drawn)
inactive: dose: 12.5 mg/kg/injection, schedule: Q01DX009 (ip), vehicle: water 99 % of control and 100 % of control | dose: 25.0 mg/kg/injection, schedule: Q01DX009 (ip), vehicle: water 106 % of control | dose: 50.0 mg/kg/injection, schedule: Q01DX009 (ip), vehicle: water 107 % of control and 120 % of control | dose: 100.0 mg/kg/injection, schedule: Q01DX009 (ip), vehicle: water 111 % of control and 94 % of control | dose: 200.0 mg/kg/injection, schedule: Q01DX009 (ip), vehicle: water 100 % of control and 101 % of control

CCOC(=O)c1nc(SC)n(C)c1C(=O)OCC
inactive: dose: 60.0 mg/kg/injection, schedule: Q01DX005 (ip), vehicle: saline with Tween-80 100 % of control | dose: 120.0 mg/kg/injection, schedule: Q01DX005 (ip), vehicle: saline with Tween-80 100 % of control | dose: 240.0 mg/kg/injection, schedule: Q01DX005 (ip), vehicle: saline with Tween-80 105 % of control

CN1CCC(/C=C/c2ccccc2)CN1 (stereo not drawn) (tested in a mixture with another compound)
inactive: [9] 113 % of control | [10] 118 % of control

C=C1C(=O)O[C@@H]2[C@H]3C(C)=CC[C@H]3C(C)=CC[C@@H]12
inactive: dose: 100.0 mg/kg/injection, schedule: Q01DX001 (ip), vehicle: saline 106 % of control | dose: 200.0 mg/kg/injection, schedule: Q01DX001 (ip), vehicle: saline 103 % of control | dose: 400.0 mg/kg/injection, schedule: Q01DX001 (ip), vehicle: saline 107 % of control

CCOC(=O)CC/C(=C/c1cccc2cc(OC)ccc12)[N+](=O)[O-]
inactive: [11] 100 % of control | [12] 101 % of control | [13] 104 % of control

COc1ccc(-c2cnc(=O)[nH]c2N)cc1
inactive: dose: 60.0 mg/kg/injection, schedule: Q01DX005 (ip), vehicle: suspension in saline 99 % of control | dose: 120.0 mg/kg/injection, schedule: Q01DX005 (ip), vehicle: suspension in saline 97 % of control | dose: 240.0 mg/kg/injection, schedule: Q01DX005 (ip), vehicle: suspension in saline 105 % of control

CCC(=O)C1C(=O)CC(=O)C(C)C1c1ccccc1OC (stereo not drawn)
inactive: [1] 92 % of control | [2] 90 % of control | [3] 87 % of control
